This assay addresses T1, PDE V (Homo sapiens, UniProt O76074).
T1 construct: Fractions that contain PDE V are pooled and dialyzed overnight; from tissue
As to the kind of experiment: Type V phosphodiesterase inhibition (hydrolysis of [3H]-cyclic GMP). Format: biochemical. Particulars: enzyme isolated from platelets. As to the method:
Protocol for Enzyme Isloation: The Type V PDE is isolated using a procedure similar to that previously described by Weishaar et al., Hypertension 15:528, (1990). Briefly, 1-2 units of platelets are suspended in an equal volume of buffer A (20 mM Tris-HCl, pH 7.5, containing 2 mM magnesium acetate, I mM dithiothreitol, and 5 mM Na2EDTA) using a polytron. The proteinase inhibitor phenylmethylsulfonyl fluoride (PMSF) are also included in this buffer at a final concentration of 200 uM. This and all subsequent procedures are performed at 0-4°C. The homogenate is then centrifuged at 100,000 rpm for 60 minutes. The supernatant is then removed and filtered through four layers of gauze and applied to a DEAE-Trisacryl M column. The column is washed with several bed volumes of buffer B (20 mM Tris-HCl, pH 7.5, containing 2 mM magnesium acetate, 1 mM dithiothreitol, and […]) and eluted by two successive linear NaCl gradients (0.05-0.15 M, 300 ml total; 0.15-0.40 M, 200 ml total). Five ml fractions are collected and assayed for cyclic AMP and cyclic GMP PDE activity. Fractions that contain PDE V are pooled and dialyzed overnight against 4 L of buffer C (20 mM Tris-HCl, pH 7.5, containing 2 mM magnesium acetate and proteinase inhibitors). The dialyzed PDE V is then concentrated to 10% of the original volume, diluted to 50% with ethylene glycol monoethyl ether and stored at -20°C. PDE V can typically be retained for up to four weeks with little or no loss of activity.
Measuring Type V PDE Activity: Enzyme activity is assessed by measuring the hydrolysis of [^3H]-cyclic GMP, as described by Thompson et al. (Thompson, W.J., Teraski, W.L., Epstein, P.N., Strada, S.J.: Adv. Cyclic Nucleotide Res. 10:69, 1979). The cyclic GMP concentration used in this assay is 0.2 uM, which approximates to the Km value. Protein concentration is adjusted to ensure that no more than 15% of the available substrate is hydrolyzed during the incubation period.
All test compounds are dissolved in dimethyl sulfoxide (final concentration of 2.5%). This concentration of dimethyl sulfoxide inhibits enzyme activity by approximately 10%. The reference Type V PDE inhibitor zaprinast is evaluated with each assay.
The compounds are tested over concentration range: 0.1, 1, 10, 100 uM (n=1), and IC50 determinations are made using 5 appropriate concentrations (n=2).

Here are results for 11 compounds from patent publication EP1202628B1, “NOVEL HYPOXANTHINE AND THIOHYPOXANTHINE COMPOUNDS” (EURO-CELTIQUE S.A., priority 1999, dated 2001).

For `COc1ccc(Cn2cnc(=O)c3[nH]c(C(C)C)nc32)cc1OC1CCCC1` [3-(3-Cyclopentyloxy-4-methoxy-benzyl)-8-isopropyl-hypoxanthine], the IC50 turned out to be 49 µM. In other words, the double-digit micromolar range.

On to `COc1ccc(Cn2cnc(=O)c3[nH]c(C(C)(C)OCc4ccccc4)nc32)cc1OCc1ccccc1` [3-(3-benzyloxy-4-methoxy-benzyl)-8-(1-benzyloxy-1-methyl-ethyl)-hypoxanthine], for which the 50% inhibitory concentration (IC50) was 12.5 µM.

The compound `COc1ccc(Cn2cnc(=O)c3[nH]c(C(C)(C)OCc4ccc(F)cc4)nc32)cc1OC1CCCC1` [3-(3-Cyclopentyloxy-4-methoxy-benzyl)-8-(1-(4-fluorobenzyloxy)-1-methyl-ethyl)-hypoxanthine] returned an IC50 of 14.5 µM. The IC50 values of the last two compounds are within 1.5-fold of each other.

For `CC(C)c1nc2c([nH]1)c(=O)ncn2Cc1ccc(Cl)cc1` [3-(4-Chloro-benzyl)-8-(1-methyl-ethyl)-hypoxanthine], the half-inhibitory concentration (IC50) stood at 7.6 µM.

In the case of `COc1ccc(Cn2cnc(=O)c3[nH]c(C(C)(C)OCc4ccccc4)nc32)cc1OC` [8-(1-Benzyloxy-1-methyl-ethyl)-3-(3,4-dimethoxybenzyl)-hypoxanthine], the midpoint of inhibition, the IC50, lay at 10 µM.

Compound `CC(C)c1nc2c([nH]1)c(=O)ncn2Cc1cccc(Cl)c1` [3-(3-Chloro-benzyl)-8-(1-methyl-ethyl)-hypoxanthine] registered a half-inhibitory concentration (IC50) of 6.32 µM.

In turn, `COc1ccc(Cn2cnc(=O)c3[nH]c(COCc4ccccc4)nc32)cc1OC1CCCC1` [8-Benzyloxymethyl-3-(3-cyclopentyloxy-4-methoxy-benzyl)-hypoxanthine] displayed an IC50 of 7.53 µM.

In turn, `COc1ccc(Cn2cnc(=O)c3[nH]c(C(C)C)nc32)cc1OC` [3-(3,4-Dimethoxy-benzyl)-8-(1-methyl-ethyl)-hypoxanthine] displayed a half-maximal inhibitory concentration (IC50) of 10.6 µM.

In turn, `COc1ccc(Cn2cnc(=O)c3[nH]c(C(C)(C)OCc4ccccc4)nc32)cc1OC1CCCC1` [8-(1-benzyloxy-1-methyl-ethyl)-3-(3-cyclopentyloxy-4-methoxy-benzyl)-hypoxanthine] showed an IC50 of 8.28 µM.

For the compound `COc1ccc(Cn2cnc(=O)c3[nH]c(C(C)(C)O)nc32)cc1OC1CCCC1` [3-(3-Cyclopentyloxy-4-methoxy-benzyl)-8-(1-hydroxy-1-methyl-ethyl)-hypoxanthine], half-maximal inhibition (IC50) required 193 µM. This IC50 is about 23-fold higher than that of the compound before.

The compound `COc1ccc(Cn2cnc(=O)c3[nH]c(C(C)(C)OCc4ccc(F)cc4)nc32)cc1OC` [3-(3,4-Dimethoxybenzyl)-8-(1-(4-fluorobenzyloxy)-1-methyl-ethyl)-hypoxanthine] showed a half-maximal inhibitory concentration (IC50) of 35.8 µM. This IC50 is about 5.4-fold lower than that of the compound before.
